Target: T1, Methionine-tRNA Synthetase L272G (MethL272G) iPSCs (Homo sapiens, UniProt P56192, L272G)
T1 construct: Using CRISPR gene editing, this locus was successfully modified in a human iPSC line; endogenous in cells; host or cells: human iPSC line ADRC 76, CRISPR-edited
T1 sequence (P56192 1-900 L272G): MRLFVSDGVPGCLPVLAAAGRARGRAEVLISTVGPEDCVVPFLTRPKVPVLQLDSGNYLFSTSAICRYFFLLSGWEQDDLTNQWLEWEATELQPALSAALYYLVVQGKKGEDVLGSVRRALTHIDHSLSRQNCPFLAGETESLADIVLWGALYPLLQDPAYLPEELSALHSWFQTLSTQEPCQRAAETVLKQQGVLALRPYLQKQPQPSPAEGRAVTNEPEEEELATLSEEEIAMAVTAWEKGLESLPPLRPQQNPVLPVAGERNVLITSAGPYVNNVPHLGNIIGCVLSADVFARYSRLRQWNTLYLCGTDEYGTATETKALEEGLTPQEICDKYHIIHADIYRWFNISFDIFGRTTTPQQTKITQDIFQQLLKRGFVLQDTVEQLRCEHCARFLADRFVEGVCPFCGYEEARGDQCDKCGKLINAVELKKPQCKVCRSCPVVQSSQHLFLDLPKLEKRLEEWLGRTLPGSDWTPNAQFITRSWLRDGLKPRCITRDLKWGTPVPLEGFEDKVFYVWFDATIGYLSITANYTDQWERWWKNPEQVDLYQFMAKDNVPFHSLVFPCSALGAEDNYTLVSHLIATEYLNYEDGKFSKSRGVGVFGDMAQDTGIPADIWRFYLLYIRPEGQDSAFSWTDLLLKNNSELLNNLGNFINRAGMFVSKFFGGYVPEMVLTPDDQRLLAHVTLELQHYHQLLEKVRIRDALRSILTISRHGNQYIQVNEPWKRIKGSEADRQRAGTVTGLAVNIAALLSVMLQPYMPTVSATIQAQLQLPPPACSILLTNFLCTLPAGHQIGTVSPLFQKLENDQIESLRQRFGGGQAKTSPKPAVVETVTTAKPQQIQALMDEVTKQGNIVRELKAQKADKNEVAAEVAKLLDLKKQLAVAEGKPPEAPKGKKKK
Test: ANL incorporation into nascent protein of iPSCs (BONCAT western blot, TAMRA confocal microscopy)
Assay type: cell-based
Settings: 1.5 mM ANL, 14 hrs
Description: Validation by Western Blot: Wild-type (WT) and MethL272G iPSCs were cultured in 6-well plate with and without 1.5 mM ANL (Tocris 6585) for 14 hrs in DMEM/F12 Silac media without Methionine (AthenaES 0433) supplemented with TeSR™-E8™ 25× Supplement. (Note: Methionine-absent media is described as Metia below.) Cells were dissociated and collected using TrypLE Express (Gibco 12605028) for 3 min at 37° C., isolated, and lysed in Ripa buffer with Halt Protease Inhibitor Cocktail (ThermoFisher Scientific 78429) and Halt Phosphatase Inhibitor Cocktail (ThermoFisher Scientific 78426). 200 μg of protein was labeled for analysis using Click-iT Protein Analysis TAMRA alkyne Detection Kit (Invitrogen C33370) that tags the azide of ANL incorporated protein with a TAMRA-alkyne tag via the following reaction:
The resulting protein pellets were boiled in 120 μl of Loading Buffer and boiled for 15 minutes at 70° C., which were then loaded into a 4-15% Criterion TGX 12-well Gel (Bio-Rad 5671083) for electrophoresis, then transferred to Trans-Blot® Turbo™ Midi Nitrocellulose Membrane (Bio-Rad 1704159) for analysis. Protein was probed with TAMRA Monoclonal Antibody (5G5) (Invitrogen MA1-041) followed by anti-mouse secondary for imaging. […]

Compound: [N-]=[N+]=NCCCC[C@H](N)C(=O)O [ANL, L-azidonorleucine]
- labeling of cellular protein (TAMRA confocal microscopy) (control ADRC76 versus MethL272G iPSCs, FIG. 2A): labeling of cellular protein only in mutated MethL272G iPSCs
- BONCAT labeling of ANL-incorporated protein (western blot) (methionine-absent media, FIG. 1B): successful BONCAT labeling

From US20240117431A1, “STEM-CELL BASED BIOMARKER DISCOVERY” (THE REGENTS OF THE UNIVERSITY OF CALIFORNIA, priority 2020, published 2024)
